ChEMBL document CHEMBL3352793, “Discovery of pyrrolo-benzo-1,4-diazines as potent Na(v)1.7 sodium channel blockers” (Bioorg Med Chem Lett, 2014)

Columns and labels:
in vivo = details: rat, po, 10 mg/kg
Rattus norvegicus = species on record: Rattus norvegicus; details: in vivo, po, 10 mg/kg, 6 h
[1] = Oral bioavailability in rat at 10 mg/kg; format: ADME, organism-based; details: in vivo
[2] = Cmax in rat at 10 mg/kg, po; format: ADME, organism-based; parameters: dose 10 mg/kg, route oral; details: in vivo
[3] = Volume of distribution at steady state in rat at 3 mg/kg, iv; format: ADME, organism-based; parameters: dose 3 mg/kg, route intravenous; details: in vivo, read-out: Vdss
Brain = assay: Drug uptake in rat brain at 10 mg/kg, po; format: ADME, organism-based; parameters: dose 10 mg/kg, route oral; details: in vivo
[4] = Mean residence time in rat at 3 mg/kg, iv; format: ADME, organism-based; parameters: dose 3 mg/kg, route intravenous; details: in vivo
[5] = Tmax in rat at 10 mg/kg, po; format: ADME, organism-based; parameters: dose 10 mg/kg, route oral; details: in vivo
[6] = Mean residence time in rat at 10 mg/kg, po; format: ADME, organism-based; parameters: dose 10 mg/kg, route oral; details: in vivo
[7] = AUC (0 to 24 hrs) in rat at 3 mg/kg, iv; format: ADME, organism-based; parameters: time < 24 hr, dose 3 mg/kg, route intravenous; details: plasma
[8] = AUC (0 to 24 hrs) in rat at 10 mg/kg, po; format: ADME, organism-based; parameters: time < 24 hr, dose 10 mg/kg, route oral; details: plasma
[9] = Terminal half life in rat at 3 mg/kg, iv; format: ADME, organism-based; parameters: dose 3 mg/kg, route intravenous; details: in vivo, read-out: beta t1/2 (converted)
[10] = Clearance in rat at 3 mg/kg, iv; format: ADME, organism-based; parameters: dose 3 mg/kg, route intravenous; details: in vivo

| SMILES | AUC(0-t) at 6 h (in vivo; in vivo) | other results |
| --- | --- | --- |
| N#Cc1ccc(C(=O)N2CCC3(CC2)Nc2ccccc2-n2cccc23)cc1 | 1.01 µM·h |  |
| CN(C)c1cccc(C(=O)N2CCC3(CC2)Nc2ccccc2-n2cccc23)c1 | 0.633 µM·h |  |
| Cc1cc(C)cc(C(=O)N2CCC3(CC2)Nc2ccccc2-n2cccc23)c1 |  | AUC (Rattus norvegicus): 0 µM·h |
| COc1ccc2c(c1)NC1(CCN(C(=O)c3ccc(C#N)cc3)CC1)c1cccn1-2 | 51.1 µM·h |  |
| N#Cc1ccc(C(=O)N2CCC3(CC2)Nc2cc(OC(F)(F)F)ccc2-n2cccc23)cc1 | 11.7 µM·h |  |
| N#Cc1ccc(C(=O)N2CCC3(CC2)Nc2cc(C(F)(F)F)ccc2-n2cccc23)cc1 | 15.2 µM·h |  |
| N#Cc1ccc(C(=O)N2CCC3(CC2)Nc2cc(Cl)ccc2-n2cccc23)cc1 | 2.9 µM·h |  |
| N#Cc1ccc(C(=O)N2CCC3(CC2)Nc2ccc(F)cc2-n2cccc23)cc1 | 12 µM·h |  |
| N#Cc1ccc(C(=O)N2CCC3(CC2)Nc2ccc(Cl)cc2-n2cccc23)cc1 | 26.1 µM·h |  |
| N#Cc1ccc(C(=O)N2CCC3(CC2)Nc2ccc(Br)cc2-n2cccc23)cc1 | 23.4 µM·h |  |
| COc1ccc2c(c1)NC1(CCN(C(=O)c3cccc(C)c3)CC1)c1cccn1-2 |  | AUC (Rattus norvegicus): 0 µM·h |
| COc1ccc2c(c1)NC1(CCN(C(=O)c3cccc(Cl)c3)CC1)c1cccn1-2 |  | AUC (Rattus norvegicus): 0 µM·h |
| COc1ccc2c(c1)NC1(CCN(C(=O)c3cccc(C#N)c3)CC1)c1cccn1-2 | 0.783 µM·h |  |
| COc1ccc2c(c1)NC1(CCN(C(=O)OCc3ccccc3)CC1)c1cccn1-2 | 13.1 µM·h |  |
| COc1ccc2c(c1)NC1(CCN(Cc3ccccc3)CC1)c1cccn1-2 | 0.37 µM·h |  |
| COc1ccc2c(c1)NC1(CCN(C(=O)c3ccccc3OC)CC1)c1cccn1-2 |  | AUC (Rattus norvegicus): 0 µM·h |
| COc1cccc(C(=O)N2CCC3(CC2)Nc2cc(OC)ccc2-n2cccc23)c1 |  | AUC (Rattus norvegicus): 0 µM·h |
| COc1ccc(C(=O)N2CCC3(CC2)Nc2cc(OC)ccc2-n2cccc23)cc1 | 91.5 µM·h |  |
| COc1ccc2c(c1)NC1(CCN(C(=O)c3ccc(C)cc3)CC1)c1cccn1-2 | 17.2 µM·h |  |
| COc1ccc2c(c1)NC1(CCN(C(=O)c3ccc(Cl)cc3)CC1)c1cccn1-2 | 1.96 µM·h |  |
| COc1ccc2c(c1)NC1(CCN(C(=O)c3ccc(N(C)C)cc3)CC1)c1cccn1-2 | 9.44 µM·h |  |
| COc1ccc2c(c1)NC1(CCN(C(=O)c3ccc(C#N)c(OC)c3)CC1)c1cccn1-2 | 26.6 µM·h |  |
| COc1ccc2c(c1)NC1(CCN(C(=O)c3ccc(N(C)C)c(Cl)c3)CC1)c1cccn1-2 | 1.27 µM·h |  |
| COc1ccc2c(c1)NC1(CCN(C(=O)c3ccc(OC)c(Cl)c3)CC1)c1cccn1-2 | 6.81 µM·h |  |
| COc1ccc2c(c1)NC1(CCN(C(=O)c3ccc(OC)c(N(C)C)c3)CC1)c1cccn1-2 |  | bioavailability [1]: 100%; Cmax [2]: 9.3 µM; Vd [3]: 1.2 L/kg; AUC(0-t) at 6 h (in vivo; plasma): 20.3 µM·h; Drug uptake (Brain): 257 ng/g; MRT [4]: 3 h; Tmax [5]: 1.3 h; MRT [6]: 4.7 h; AUC(0-t) at 24 h [7]: 17.4 µM·h; AUC(0-t) at 24 h [8]: 65.9 µM·h; half-life [9]: 2.9 h; clearance [10]: 6.5 mL/min/kg |
| COc1ccc2c(c1)NC1(CCN(C(=O)c3cc(C)cc(C)c3)CC1)c1cccn1-2 | 0.788 µM·h |  |
